Results from PMC5218480 (PLoS ONE, 2017).

Test system: MV-4-11 cells
Assay: Gene expression microarray analysis (Affymetrix PrimeView) and GSEA
Type: cell-based, human
Set-up: RFU PODN (11730768_x_at) / Fold change /veh PODN (11730768_x_at) / RFU LINC00158 (11744669_a_at) / Fold change /veh LINC00158 (11744669_a_at) / RFU DUSP10 (11751237_a_at) / Fold change /veh DUSP10 (11751237_a_at) / RFU ID3 (11757404_x_at) / Fold change /veh ID3 (11757404_x_at) / RFU PLEKHG5 (11737974_s_at) / Fold change /veh PLEKHG5 (11737974_s_at) / RFU LRRC4B (11730491_at) / Fold change /veh LRRC4B (11730491_at) / RFU GIMAP4 (11747438_a_at) / Fold change /veh GIMAP4 (11747438_a_at) / RFU KRT8 (11758183_x_at) / Fold change /veh KRT8 (11758183_x_at) / RFU CNN1 (11734310_a_at) / Fold change /veh CNN1 (11734310_a_at) / RFU VPS37D (11726825_at) / Fold change /veh VPS37D (11726825_at) / RFU C10orf10 (11716522_x_at) / Fold change /veh C10orf10 (11716522_x_at) / RFU KIR2DL2 /// KIR2DL4 /// KIR2DL5A /// KIR2DL5B /// KIR2DS1 /// KIR2DS2 /// KIR2DS3 /// KIR2DS4 /// KIR3DL3 /// KIR3DL3 /// KIR3DS1 (11738374_at) / Fold change /veh KIR2DL2 /// KIR2DL4 /// KIR2DL5A /// KIR2DL5B /// KIR2DS1 /// KIR2DS2 /// KIR2DS3 /// KIR2DS4 /// KIR3DL3 /// KIR3DL3 /// KIR3DS1 (11738374_at) / RFU C1QL1 (11718748_at) / Fold change /veh C1QL1 (11718748_at) / RFU TMPRSS4 (11747572_a_at) / Fold change /veh TMPRSS4 (11747572_a_at) / RFU HAMP (11756126_x_at) / Fold change /veh HAMP (11756126_x_at) / RFU RNFT2 (11725882_a_at) / Fold change /veh RNFT2 (11725882_a_at) / RFU NR4A2 (11747474_a_at) / Fold change /veh NR4A2 (11747474_a_at) / RFU ABCC12 (11746883_a_at) / Fold change /veh ABCC12 (11746883_a_at) / RFU TMEM136 (11760407_x_at) / Fold change /veh TMEM136 (11760407_x_at) / RFU CLDN22 /// WWC2 (11732394_at) / Fold change /veh CLDN22 /// WWC2 (11732394_at) / RFU HLA-DPB1 (11760878_x_at) / Fold change /veh HLA-DPB1 (11760878_x_at) / RFU SPINT1 (11716480_a_at) / Fold change /veh SPINT1 (11716480_a_at) / RFU GAP43 (11754022_s_at) / Fold change /veh GAP43 (11754022_s_at) / RFU A4GNT (11735810_at) / Fold change /veh A4GNT (11735810_at) / RFU PRB3 (11715151_x_at) / Fold change /veh PRB3 (11715151_x_at) / RFU TUBB4B (11761932_at) / Fold change /veh TUBB4B (11761932_at) / RFU CAPN14 (11732068_a_at) / Fold change /veh CAPN14 (11732068_a_at) / RFU TMCC2 (11721928_a_at) / Fold change /veh TMCC2 (11721928_a_at) / RFU IRGQ (11745062_a_at) / Fold change /veh IRGQ (11745062_a_at) / RFU FAM174B (11720279_a_at) / Fold change /veh FAM174B (11720279_a_at) / RFU TMPRSS4 (11748680_a_at) / Fold change /veh TMPRSS4 (11748680_a_at) / RFU FAM212B (11763350_a_at) / Fold change /veh FAM212B (11763350_a_at) / RFU PLEKHG5 (11743358_a_at) / Fold change /veh PLEKHG5 (11743358_a_at) / RFU ZSCAN30 (11745921_a_at) / Fold change /veh ZSCAN30 (11745921_a_at) / RFU CMKLR1 (11741424_a_at) / Fold change /veh CMKLR1 (11741424_a_at) / RFU LOC101060620 /// MAPK8IP1 (11723275_at) / Fold change /veh LOC101060620 /// MAPK8IP1 (11723275_at) / RFU SPTSSB (11747773_x_at) / Fold change /veh SPTSSB (11747773_x_at) / RFU PRSS12 (11739890_at) / Fold change /veh PRSS12 (11739890_at) / RFU BIN1 (11741810_x_at) / Fold change /veh BIN1 (11741810_x_at) / RFU WNT11 (11732464_a_at) / Fold change /veh WNT11 (11732464_a_at) / RFU C10orf10 (11716521_a_at) / Fold change /veh C10orf10 (11716521_a_at) / RFU C5orf56 (11738089_at) / Fold change /veh C5orf56 (11738089_at) / RFU CYB561 (11721691_x_at) / Fold change /veh CYB561 (11721691_x_at) / RFU ANKRD19P (11752326_a_at) / Fold change /veh ANKRD19P (11752326_a_at) / RFU OR2T12 /// OR2T33 /// OR2T8 (11738714_s_at) / Fold change /veh OR2T12 /// OR2T33 /// OR2T8 (11738714_s_at) / RFU VCAN (11748164_a_at) / Fold change /veh VCAN (11748164_a_at) / RFU JSRP1 (11732532_at) / Fold change /veh JSRP1 (11732532_at) / RFU KRTAP10-11 (11738290_x_at) / Fold change /veh KRTAP10-11 (11738290_x_at) / RFU MYO3A (11730013_a_at) / Fold change /veh MYO3A (11730013_a_at) / RFU EBF3 (11725865_a_at) / Fold change /veh EBF3 (11725865_a_at) / RFU CAMK2N1 (11719241_x_at) / Fold change /veh CAMK2N1 (11719241_x_at) / RFU C5orf56 (11738088_a_at) / Fold change /veh C5orf56 (11738088_a_at) / RFU OLFML3 (11715873_a_at) / Fold change /veh OLFML3 (11715873_a_at) / RFU LOC100653217 /// NTM (11731650_a_at) / Fold change /veh LOC100653217 /// NTM (11731650_a_at) / RFU MAPK11 (11762145_a_at) / Fold change /veh MAPK11 (11762145_a_at) / RFU FIZ1 (11724087_x_at) / Fold change /veh FIZ1 (11724087_x_at) / RFU OASL (11726364_x_at) / Fold change /veh OASL (11726364_x_at) / RFU SOX15 (11748057_x_at) / Fold change /veh SOX15 (11748057_x_at) / RFU CD79A (11719716_a_at) / Fold change /veh CD79A (11719716_a_at) / RFU HIST1H1D (11736915_at) / Fold change /veh HIST1H1D (11736915_at) / RFU CASKIN2 (11723855_a_at) / Fold change /veh CASKIN2 (11723855_a_at) / RFU LOC730098 (11760151_x_at) / Fold change /veh LOC730098 (11760151_x_at) / RFU OR4N2 (11742367_at) / Fold change /veh OR4N2 (11742367_at) / RFU PRRT2 (11749266_a_at) / Fold change /veh PRRT2 (11749266_a_at) / RFU SNX32 (11753110_a_at) / Fold change /veh SNX32 (11753110_a_at) / RFU CDHR5 (11726645_a_at) / Fold change /veh CDHR5 (11726645_a_at) / RFU RCAN1 (11760418_a_at) / Fold change /veh RCAN1 (11760418_a_at) / RFU FAM167A (11723789_a_at) / Fold change /veh FAM167A (11723789_a_at) / RFU FAM26E (11764081_at) / Fold change /veh FAM26E (11764081_at) / RFU ISYNA1 (11749810_s_at) / Fold change /veh ISYNA1 (11749810_s_at) / RFU ACY1 (11761880_at) / Fold change /veh ACY1 (11761880_at) / RFU 11764098_at / Fold change /veh 11764098_at / RFU SAMD14 (11745864_x_at) / Fold change /veh SAMD14 (11745864_x_at) / RFU NPB (11741838_a_at) / Fold change /veh NPB (11741838_a_at) / RFU TMPRSS6 (11731388_a_at) / Fold change /veh TMPRSS6 (11731388_a_at) / RFU KRTAP10-2 (11738614_at) / Fold change /veh KRTAP10-2 (11738614_at) / RFU ARHGAP8 /// PRR5-ARHGAP8 (11727945_x_at) / Fold change /veh ARHGAP8 /// PRR5-ARHGAP8 (11727945_x_at) / RFU KRTAP5-7 /// NADSYN1 (11734609_at) / Fold change /veh KRTAP5-7 /// NADSYN1 (11734609_at) / RFU RASL12 (11751679_a_at) / Fold change /veh RASL12 (11751679_a_at) / RFU CDKN2B (11736163_a_at) / Fold change /veh CDKN2B (11736163_a_at) / RFU PRF1 (11729649_at) / Fold change /veh PRF1 (11729649_at) / RFU, ZNF638 /// ZNF638-IT1 / Fold change vs veh, ZNF638 /// ZNF638-IT1 / RFU, PANK3 / Fold change vs veh, PANK3 / RFU, SH3YL1 / Fold change vs veh, SH3YL1 / RFU, ZEB2 / Fold change vs veh, ZEB2 / RFU, NRIP1 / Fold change vs veh, NRIP1 / RFU, PTTG1IP / Fold change vs veh, PTTG1IP / RFU, CAPN2 / Fold change vs veh, CAPN2 / RFU, MED14 / Fold change vs veh, MED14 / RFU, SNORA58 / Fold change vs veh, SNORA58 / RFU, C1orf63 / Fold change vs veh, C1orf63 / RFU, LRRFIP1 / Fold change vs veh, LRRFIP1 / RFU, NDUFAF7 / Fold change vs veh, NDUFAF7 / RFU, SLC12A2 / Fold change vs veh, SLC12A2 / RFU, IBTK / Fold change vs veh, IBTK / RFU, ESF1 / Fold change vs veh, ESF1 / Fold change vs veh, TMEM50B / RFU, TAOK1 / Fold change vs veh, TAOK1 / RFU, ACBD3 / Fold change vs veh, ACBD3 / RFU, TMA16 / Fold change vs veh, TMA16 / RFU, RWDD3 / Fold change vs veh, RWDD3 / RFU, BCAT1 / Fold change vs veh, BCAT1 / RFU, EDEM3 / Fold change vs veh, EDEM3 / RFU, TMEM33 / Fold change vs veh, TMEM33 / RFU, WDR75 / Fold change vs veh, WDR75 / RFU, AHCTF1 / Fold change vs veh, AHCTF1 / RFU, TFRC / Fold change vs veh, TFRC / RFU, ZDHHC17 / Fold change vs veh, ZDHHC17 / RFU, NOM1 / Fold change vs veh, NOM1 / RFU, ARL8B / Fold change vs veh, ARL8B / RFU, ZBTB11 / Fold change vs veh, ZBTB11 / RFU, TAMM41 / Fold change vs veh, TAMM41 / RFU, KIAA1704 /// LOC100996395 / Fold change vs veh, KIAA1704 /// LOC100996395 / RFU, ING1 / Fold change vs veh, ING1 / RFU, TRMT61B / Fold change vs veh, TRMT61B / RFU, FUBP3 / Fold change vs veh, FUBP3 / RFU, TP53 / Fold change vs veh, TP53 / RFU, TNKS2 / Fold change vs veh, TNKS2 / RFU, ZFP14 / Fold change vs veh, ZFP14 / RFU, ACTR2 / Fold change vs veh, ACTR2 / RFU, PPP3R1 / Fold change vs veh, PPP3R1 / RFU, PIK3R1 / Fold change vs veh, PIK3R1 / RFU, HNRNPA1 / Fold change vs veh, HNRNPA1 / RFU, RNF170 / Fold change vs veh, RNF170 / RFU, ZNF28 / Fold change vs veh, ZNF28 / RFU, RNGTT / Fold change vs veh, RNGTT / RFU, OGT / Fold change vs veh, OGT / RFU, BRD1 / Fold change vs veh, BRD1 / RFU, MARS / Fold change vs veh, MARS / RFU, ZNF655 / Fold change vs veh, ZNF655 / RFU, FAHD1 / Fold change vs veh, FAHD1 / RFU, BDP1 / Fold change vs veh, BDP1 / RFU, LRRCC1 / Fold change vs veh, LRRCC1 / RFU, ARID1A / Fold change vs veh, ARID1A / RFU, ZNF146 / Fold change vs veh, ZNF146 / RFU, ZNF330 / Fold change vs veh, ZNF330 / RFU, GPN3 / Fold change vs veh, GPN3 / RFU, C9orf123 / Fold change vs veh, C9orf123 / RFU, N4BP2L2 / Fold change vs veh, N4BP2L2 / RFU, ARFIP1 / Fold change vs veh, ARFIP1 / RFU, FAM179B / Fold change vs veh, FAM179B / RFU, BCL10 / Fold change vs veh, BCL10 / RFU, UHRF1BP1L / Fold change vs veh, UHRF1BP1L / RFU, BET1 / Fold change vs veh, BET1 / RFU, CNOT2 / Fold change vs veh, CNOT2 / RFU, ZNF268 / Fold change vs veh, ZNF268 / Fold change vs veh, ZNF507 / RFU, DGCR2 / Fold change vs veh, DGCR2 / RFU, WDSUB1 / Fold change vs veh, WDSUB1 / Fold change vs veh, HSP90B1 /// MIR3652 / RFU, ADSS / Fold change vs veh, ADSS / RFU, GK / Fold change vs veh, GK / RFU, ZNF148 / Fold change vs veh, ZNF148 / RFU, TAF9 / Fold change vs veh, TAF9 / RFU, SLC1A5 / Fold change vs veh, SLC1A5 / RFU, SLMO2 / Fold change vs veh, SLMO2 / RFU, ABCC4 / Fold change vs veh, ABCC4 / RFU, LOC101060439 /// RAP1B / Fold change vs veh, LOC101060439 /// RAP1B / RFU, RFX7 / Fold change vs veh, RFX7 / RFU, GTPBP10 / Fold change vs veh, GTPBP10 / RFU, CNEP1R1 / Fold change vs veh, CNEP1R1 / RFU, BIVM-ERCC5 /// ERCC5 / Fold change vs veh, BIVM-ERCC5 /// ERCC5 / RFU, ILF3 / Fold change vs veh, ILF3 / RFU 11762660_at / Fold change /veh 11762660_at / RFU VCAN (11757783_s_at) / Fold change /veh VCAN (11757783_s_at) / RFU DDX43 (11728927_at) / Fold change /veh DDX43 (11728927_at) / RFU KRT8 (11758188_x_at) / Fold change /veh KRT8 (11758188_x_at) / RFU NKD1 (11759106_at) / Fold change /veh NKD1 (11759106_at) / RFU SRD5A1 (11742802_a_at) / Fold change /veh SRD5A1 (11742802_a_at) / RFU TPSAB1 /// TPSB2 (11721975_s_at) / Fold change /veh TPSAB1 /// TPSB2 (11721975_s_at) / RFU GSTM3 (11746129_a_at) / Fold change /veh GSTM3 (11746129_a_at) / RFU IL23R (11737362_x_at) / Fold change /veh IL23R (11737362_x_at) / RFU TMEM51 (11727254_a_at) / Fold change /veh TMEM51 (11727254_a_at) / RFU PIWIL2 (11732686_x_at) / Fold change /veh PIWIL2 (11732686_x_at) / RFU ORM1 (11744905_x_at) / Fold change /veh ORM1 (11744905_x_at) / RFU CCDC152 (11743942_at) / Fold change /veh CCDC152 (11743942_at) / RFU ECM1 (11717891_a_at) / Fold change /veh ECM1 (11717891_a_at) / RFU IL23R (11748794_a_at) / Fold change /veh IL23R (11748794_a_at) / RFU TNFAIP8L3 (11732012_x_at) / Fold change /veh TNFAIP8L3 (11732012_x_at) / RFU MBOAT4 (11741988_at) / Fold change /veh MBOAT4 (11741988_at) / RFU 11764193_at / Fold change /veh 11764193_at / RFU TMEM53 (11763286_at) / Fold change /veh TMEM53 (11763286_at) / RFU MAGEB2 (11727129_at) / Fold change /veh MAGEB2 (11727129_at) / RFU TMEM200A (11744735_a_at) / Fold change /veh TMEM200A (11744735_a_at) / RFU CCDC152 (11751479_a_at) / Fold change /veh CCDC152 (11751479_a_at) / RFU FAM211A (11726209_a_at) / Fold change /veh FAM211A (11726209_a_at) / RFU RGS16 (11746705_a_at) / Fold change /veh RGS16 (11746705_a_at) / RFU VCAN (11755009_s_at) / Fold change /veh VCAN (11755009_s_at) / RFU RHOB (11743442_s_at) / Fold change /veh RHOB (11743442_s_at) / RFU RGS16 (11720943_a_at) / Fold change /veh RGS16 (11720943_a_at) / RFU RGS16 (11720944_at) / Fold change /veh RGS16 (11720944_at) / RFU, VPS4B / Fold change vs veh, VPS4B / RFU, CREB1 / Fold change vs veh, CREB1 / RFU, DNAJC13 / Fold change vs veh, DNAJC13 / RFU, GNAQ / Fold change vs veh, GNAQ / RFU, CDK5R1 / Fold change vs veh, CDK5R1 / RFU, ZRANB3 / Fold change vs veh, ZRANB3 / RFU, CUL4A / Fold change vs veh, CUL4A / RFU, CCNY / Fold change vs veh, CCNY / RFU, UFL1 / Fold change vs veh, UFL1 / RFU, COG3 / Fold change vs veh, COG3 / RFU, DIAPH2 / Fold change vs veh, DIAPH2 / RFU, SKA2 / Fold change vs veh, SKA2 / RFU, AFF3 / Fold change vs veh, AFF3 / RFU, LMF1 / Fold change vs veh, LMF1 / RFU, IPO11 / Fold change vs veh, IPO11 / RFU, DFFB / Fold change vs veh, DFFB / RFU, FOXP1 / Fold change vs veh, FOXP1 / RFU, CARD8 / Fold change vs veh, CARD8 / RFU, STRN3 / Fold change vs veh, STRN3 / RFU, ADK / Fold change vs veh, ADK / RFU, RASSF2 / Fold change vs veh, RASSF2 / RFU, WIPF1 / Fold change vs veh, WIPF1 / RFU, LARP1B / Fold change vs veh, LARP1B / RFU, RASA1 / Fold change vs veh, RASA1 / RFU, RB1 / Fold change vs veh, RB1 / RFU, PPFIA1 / Fold change vs veh, PPFIA1 / RFU, MAT2A / Fold change vs veh, MAT2A / RFU, CCT5 / Fold change vs veh, CCT5 / RFU, WDR92 / Fold change vs veh, WDR92 / RFU, CUX1 / Fold change vs veh, CUX1 / RFU, TTC7A / Fold change vs veh, TTC7A / RFU, TMEM135 / Fold change vs veh, TMEM135 / RFU, DEPTOR / Fold change vs veh, DEPTOR / RFU, CPM / Fold change vs veh, CPM / RFU, DNAJB6 / Fold change vs veh, DNAJB6 / RFU, CACNA2D3 / Fold change vs veh, CACNA2D3 / RFU, DTX4 / Fold change vs veh, DTX4 / RFU, TFCP2 / Fold change vs veh, TFCP2 / RFU, GMCL1 /// GMCL1P1 / Fold change vs veh, GMCL1 /// GMCL1P1 / RFU, AEBP2 / Fold change vs veh, AEBP2 / RFU, SNHG1 /// SNORD22 /// SNORD25 /// SNORD26 /// SNORD27 /// SNORD28 /// SNORD29 /// SNORD31 / Fold change vs veh, SNHG1 /// SNORD22 /// SNORD25 /// SNORD26 /// SNORD27 /// SNORD28 /// SNORD29 /// SNORD31 / Fold change (Aza/veh), C12orf56 (ProbeSet 11735607_a_at) / Fold change (ACY-1035/veh), C12orf56 (ProbeSet 11735607_a_at) / Fold change (Aza/veh), FGFR1OP (ProbeSet 11751329_s_at) / Fold change (ACY-1035/veh), FGFR1OP (ProbeSet 11751329_s_at) / Fold change (Aza/veh), VPS36 (ProbeSet 11739960_a_at) / Fold change (ACY-1035/veh), VPS36 (ProbeSet 11739960_a_at) / RFU SYPL1 (11715823_x_at) / Fold change /veh SYPL1 (11715823_x_at) / RFU IGFBP7 (11715501_s_at) / Fold change /veh IGFBP7 (11715501_s_at) / RFU REEP3 (11722064_at) / Fold change /veh REEP3 (11722064_at) / RFU IGLL1 (11728026_x_at) / Fold change /veh IGLL1 (11728026_x_at): dose or concentration left out as unconfirmed
Conditions: ProbeSet 11753055_s_at; LIST B

**Q.** How did the “Fold change vs veh, LOC101060439 /// RAP1B” value turn out when `Nc1ccc(-c2cccs2)cc1NC(=O)c1ccc2c(c1)cc(C1CC1)n2CCN1CCOCC1` [ACY-1035] was run?
**A.** 0.99
